# Experimental data reported in patent US4672066A, “Derivatives of 4-acetyl-3-hydroxy-2-alkyl-phenoxycarboxylic acids” (Hoffmann-La Roche Inc., priority 1985, dated 1987).
# Columns and labels:
# PAF [1] = assay: PAF-Induced Guinea Pig Bronchoconstriction Test; type: in vivo, guinea pig (Hartley); conditions: for inhibition of PAF-induced bronchoconstriction: 1.0 mg/kg i.v., 1 min pretreatment
# Procedure: Male guinea pigs (Hartley strain) weighing 300 to 500 g are anesthetized with urethane (2 g/kg) intraperitoneally and a polyethylene cannula is inserted into the jugular vein for drug administration. Tracheal pressure is recorded from a cannula inserted in the trachea and connected to a Statham pressure transducer. Propranolol (0.1 mg/kg) is administered intravenously five minutes before challenge with synthetic PAF, the animals's skeletal muscles are then paralyzed with succinylcholine (1.2 mg/kg i.v.), and the animal is respirated using a Harvard small animal respirator operating at 40 breaths/min and 2.5 cc stroke volume. Under these conditions PAF induces a dose-dependent increase in ventilatory pressure over a dose range of 0.5 to 5 pg/kg i.v. The bronchoconstrictive effect of PAF occurs at approximately a 10-fold lower dose than that obtained with LTE. For screening purposes animals are challenged with a single dose of PAF (10 pg/kg i.v.).
# Test compounds are screened by either the intravenous route (1.0 mg/kg i.v., 1 min pretreatment) or oral route (100 mg/kg p.o., 2 hour pretreatment). The peak increase in ventilatory pressure (cm H2 O) is recorded for three control animals and five drug-treated animals and the percent inhibition determined.
# PAF [2] = assay: PAF-Induced Rat Skin Wheal Test; type: in vivo, Sprague-Dawley rats; conditions: for inhibition of PAF-induced rat skin wheal: 5 mg/kg i.v. (1 min. pretreatment)
# Procedure: This test evaluates the ability of compounds to inhibit PAF-induced increases in vascular permeability in the skin of Sprague-Dawley rats. PAF induces a dose-dependent skin wheal response in this system over a dose range of 0.0001 to 1 pg/0.05 ml injection. The profound vasoactive activity of PAF is emphasized by the fact that the maximum skin wheal response is considerably greater than that obtained with LTE and an EC50 response is elicited at a 10-fold lower dose. For drug screening purposes, 5 ng of PAF is injected intradermally into anesthetized rats which had been pretreated for 30 minutes with an antihistamine (pyrilamine maleate, 50 mg/kg, i.p.) and an antiserotonin compound (methylsergide maleate, 4 mg/kg, i.p.). Immediately thereafter, the test compound is injected intravenously into the tail vein of the animal. This is followed by an intravenous injection of Evan's blue dye (0.5% in saline). Thirty minutes later the animals are sacrificed and the increase in vascular permeability induced by the migration of dye into the injection point in the skin is determined. For this purpose, rats are sacrificed by cervical dislocation, the dorsal skin is removed, the long and short axis of each […] is measured with a metric vernier caliper and the average diameter is obtained.
# leukotriene E4 (LTE4) = assay: LTE4-Induced Guinea Pig Bronchoconstriction Test; type: in vivo; conditions: 10 mg/kg i.v.
# Procedure: In this test system, the ability of a drug to inhibit the bronchoconstriction induced in guinea pigs by leukotriene E4 (LTE4) is measured. A maximally constrictory dose of LTE4 is injected into guinea pigs which have been pretreated with propranolol (0.1 mg/kg, i.v.) for 5 minutes prior to challenge. The bronchoconstriction (in cm H2 O) elicited in animals pretreated intravenously for 30 seconds (at 10 mg/kg) or orally for 2 hours (at 100 mg/kg) with the test drug prior to LTE4 challenge is compared to that elicited in the absence of the test compound to determine the in vivo activity of the drug.
# PAF [3] = biological target: T1, PAF (Canis lupus familiaris, UniProt A0A8I3NSH0); assay: PAF Radioreceptor Binding Assay; conditions: Table I; dog platelets, 3H-PAF
# T1 construct: followed by 2×10^7 dog platelets; from tissue; host or cells: washed platelets from citrate-treated dog blood
# T1 sequence (A0A8I3NSH0 1-343): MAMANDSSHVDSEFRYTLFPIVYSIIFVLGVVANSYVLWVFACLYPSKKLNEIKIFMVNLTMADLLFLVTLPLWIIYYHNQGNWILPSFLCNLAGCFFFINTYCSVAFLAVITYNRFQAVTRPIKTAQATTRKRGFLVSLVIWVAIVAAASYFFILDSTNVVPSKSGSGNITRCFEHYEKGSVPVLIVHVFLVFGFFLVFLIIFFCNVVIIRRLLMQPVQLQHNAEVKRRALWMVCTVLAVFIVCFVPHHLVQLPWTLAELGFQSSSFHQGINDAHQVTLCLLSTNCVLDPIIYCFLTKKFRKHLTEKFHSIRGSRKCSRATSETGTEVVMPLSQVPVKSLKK
# Procedure: Platelet rich plasma is prepared by centrifugation of citrate-treated dog blood. Acidification to pH 6.5 with 0.15 M citric acid and centrifugation for 10 minutes at 1000 xg yields a platelet pellet which is then washed by resuspension in EDTA-Phosphate Buffered Saline (PBS) and recentrifuged. The washed platelet preparation is adjusted to 2×10^7 platelets/50 μl in 0.1% BSA-PBS. […] After mixing, incubating for 10 minutes at room temperature, and centrifuging for 1 minute in a Beckman Microfuge B (8000 xg), the pellet is removed by clipping off the tip of the tube, the platelets are solubilized with 200 μl of 50% methanol, and counted in 10 ml of Aquasol. […] Results obtained with representative compounds of the present invention in this assay are summarized hereinafter in Tables I, II and III.
# SRS-A = assay: Guinea Pig Ileum, In Vitro (SRS-A antagonism); conditions: Table I, read-out: SRS-A Antagonism IC50
# Procedure: The guinea pig ileum bioassay system has been described by Orange and Austen, Adv. Immunol. 10: 104-144 ([…]). A 1.5 cm segment is removed from animals weighting 300-400 g. and suspended in an organ bath containing 10 ml. of Tyrodes solution with 10^-6 M atropine sulfate and 10^-6 M pyrilamine maleate. The bath is maintained at 37° C. and aerated with a mixture of 95% oxygen and 5% carbon dioxide. The SRS-A utilized in this screen is obtained by challenging chopped lung fragments from actively sensitized guinea pigs with egg albumin, in vitro. A dose-response curve to SRS-A challenge is established for the ileum. The dose of SRS-A which gives 50% of the maximal contraction (EC50) is then used for subsequent challenge. The drug concentration which inhibits, by 50%, the SRS-A induced constriction of the guinea pig ileum is determined.
SMILES,inhibition of PAF-induced bronchoconstriction (PAF [1]) [%],inhibition of PAF-induced rat skin wheal (PAF [2]) [%],inhibition of LTE4-induced bronchoconstriction (leukotriene E4 (LTE4)) [%],also measured
"CCCCCCCCCCCCCCCCOCC(COP(=O)([O-])OCC[N+](C)(C)C)OC(C)=O (stereo not shown) [PAF, reference compound]",,,,"bronchoconstrictive effect of PAF, dose lower than that with LTE (PAF [1]; i.v., compared with LTE): ~10 fold; EC50 response in skin wheal, dose lower than with LTE (PAF [2]; compared with LTE): 10 fold"
"CCCc1c(OCc2ccc(C(=O)NC(C)CCCc3cccnc3)cc2)ccc(C(C)=O)c1O (stereo not shown) [Example 34, 4-[(4-Acetyl-3-hydroxy-2-propylphenoxy)-methyl]-N-[1-methyl-4-(3-pyridinyl)butyl]benzamide]",85±8,63±4,,
"CCCc1c(OCCCCCC(=O)OCCCc2cccnc2)ccc(C(C)=O)c1O.Cl [Example 28, 6-(4-Acetyl-3-hydroxy-2-propylphenoxy)-hexanoic acid, 3-(3-pyridinyl)propyl ester hydrochloride]",,,87,
"CCCc1c(OCCCCCC(=O)NCCCCc2cccnc2)ccc(C(C)=O)c1O.Cl [Example 4, 6-(4-Acetyl-3-hydroxy-2-propylphenoxy)-N-[4-(3-pyridinyl)butyl]hexanamide hydrochloride]",,,95,IC50 (PAF [3]): 0.7 µM; IC50 (SRS-A): 6 µM
"CCCc1c(OCCCC#CC(=O)NCCCCc2cccnc2)ccc(C(C)=O)c1O [Example 21, 6-(4-Acetyl-3-hydroxy-2-propylphenoxy)-N-[4-(3-pyridinyl)butyl]-2-hexynamide]",98±10,62±3,,
